The text below walks through data of ChEMBL document CHEMBL1155391, “SelSA, selenium analogs of SAHA as potent histone deacetylase inhibitors” (Bioorg Med Chem Lett, 2010).

In one test the test system is HeLa. In words: Selectivity ratio of IC50 for drug to SAHA against human HDAC in HeLa cell nuclear extract. It counts as cell-based.
For test [1], the target named is Histone deacetylase (Homo sapiens) (UniProt Q13547+O15379+Q9UBN7+Q92769+Q9UQL6+Q8WUI4+Q9BY41+Q96DB2+P56524+Q9UKV0+Q969S8). The note with it: HeLa, at 50 nM.
Description: Inhibition of human HDAC in human HeLa cell nuclear extract at 50 nM after 15 mins by colorimetric assay
A further test addresses Histone deacetylase. Put plainly: Inhibition of human HDAC in human HeLa cell nuclear extract after 15 mins by colorimetric assay. Format: cell-based.

What is called inhibition is how much of the control response was suppressed. The low end stands for little suppression, the high end for strong suppression. For `O=C(CCCCC[Se][Se]CCCCCC(=O)Nc1ccccc1)Nc1ccccc1`, the Ratio IC50 with HeLa is greater than 20. The molecule also yielded an inhibition in test [1] of 81%.
For orientation: IC50 means the midpoint of a concentration-inhibition curve. A low value points to inhibition by little substance. On Histone deacetylase, `N#C[Se]CCCCCC(=O)Nc1ccccc1` gave an IC50 of 8.9 nM. Also, the Ratio IC50 with HeLa turned out to be 20. Moreover, the inhibition in test [1] turned out to be 95%.
